Experimental data published in US7928114B2, “Crystalline erlotinib” (Synthon BV, priority 2006, dated 2011).
“Also recorded” adds a separate entry of the source. Structures can show the parent of a compound that is named as a salt.

How the values were obtained:
[1] = WO 2004/072049 (Form E vs Form B), WO 99/55683 (mesylate vs hydrochloride); cited from earlier work
[2] = WO 01/34574, WO 2004/072049; cited from earlier work
[3] = Relative thermodynamic stability of erlotinib free base crystal forms (prolonged stirring in 2-propanol; transitions on heating); assay type: physicochemical; conditions: recrystallization from 2-propanol with prolonged stirring; Forms I and III convert to Form II on heating
Source text: Recrystallization from 2-propanol may initially give Form II with a small amount of another Form. However, prolonged stirring results in pure Form II.
The hydrates of the invention can be converted into anhydrous forms and vice versa. For instance, any of the hydrates provides for the erlotinib free base Form II by heating.
The transition of hydrate Form I into Form II proceeds via melting of Form I after which the melt recrystallizes to Form II. The transition of Form III into Form II occurs via the solid-solid transformation.

TGA hygroscopicity = assay type: physicochemical
Source text: TGA confirmed that Form II can be considered non-hygroscopic.

[4] = XRPD under non-ambient conditions (humidity / elevated temperature); assay type: physicochemical; conditions: 30° C./10-90% RH and 50° C./75% RH

Compound: erlotinib mesylate [mesylate salt of erlotinib]
- solubility relative to comparator form/salt [1]: enhanced solubility compared to the hydrochloride

Compound: C#Cc1cccc(Nc2ncnc3cc(OCCOC)c(OCCOC)cc23)c1 [Form B, erlotinib hydrochloride]
- stability relative to other erlotinib hydrochloride polymorphs [2]: thermodynamically more stable than Form A

Compound: C#Cc1cccc(Nc2ncnc3cc(OCCOC)c(OCCOC)cc23)c1 [Form II, [6,7-bis(2-methoxyethoxy)-quinazolin-4-yl]-(3-ethynylphenyl)amine]
- thermodynamic stability relative to other free base forms [3]: thermodynamically more stable Form; also recorded: thermodynamically most stable form
- hygroscopicity (TGA hygroscopicity): non-hygroscopic
- polymorphic transitions under humid conditions at elevated temperatures [4]: does not undergo polymorphic transitions

Compound: C#Cc1cccc(Nc2ncnc3cc(OCCOC)c(OCCOC)cc23)c1 [Form E, erlotinib hydrochloride]
- solubility relative to comparator form/salt [1]: higher solubility
